# Assay results as given in patent US20190290728A1, “METHODS RELATED TO BREAKING T CELL EXHAUSTION” (CHILDREN'S MEDICAL CENTER CORPORATION, priority 2016, published 2019).
# Test system: Jurkat cells expressing TMEM16F-RFP
# Assay: TIRF live imaging of TMEM16F-positive vesicle movement at the TCR activation site
# Assay type: cell-based
# Settings: Jurkat cells pretreated with 1 μM inhibitor for 30 min, stimulated on αCD3-coated coverslips, TIRF microscopy (FIGS. 7D, 7E)
# Text: TMEM16F is recruited to the immunological synapse and resides in late endosomes. To elucidate the molecular mechanism how TMEM16F controls T cell activation, its cellular localization and function were tracked. To this end, T cells transduced with fluorescent TMEM16F were cocultured with antigen-presenting B cells. […] Of note, TMEM16F appeared mainly in intracellular structures instead of the plasma membrane (FIG. 7A). […] In order to test the mechanics of TMEM16F-positive vesicle movement, TIRF live imaging was performed while modulating the functions of the cytoskeleton. […] By contrast, treatment with nocodazole that disrupts the microtubule network reduced migration of TMEM16F vesicles, indicating the movement of TMEM16F was largely mediated by microtubules but not actin (FIGS. 7D and 7E).
# TIRF Microscopy. Sample preparation for TIRF microscopy was performed as previously reported with minor modifications (Bunnell et al., 2003). […]
# Image Processing. […] The number of TMEM16F-positive spots was plotted using Prism 6.0™ Quantifications of LBPA-positive vesicles, LAT-GFP, and SH2-ZAP70-mCherry were done similarly. Intensity of SH2-ZAP70-mCherry was determined using intensity vs. time plug-in. For the colocalization of TMEM16F and Rab proteins, fluorescence intensity for each protein was measured on a line manually drawn along TMEM16F-positive vesicles, and values (pixel) were plotted. […]
row,SMILES,recruitment of TMEM16F to the T cell activation site / migration of TMEM16F vesicles
1,Cc1ccc2c(c1)C(=O)C1(O)CCN(c3ccccc3)C1=N2 (centres unmarked) [blebbistatin],did not alter
2,COC(=O)Nc1nc2ccc(C(=O)c3cccs3)cc2[nH]1 [nocodazole],reduced
